Experimental data: patent US20230139171A1 (SITA Information Networking Computing UK Limited, priority 2019, published 2023)

Assays:
Format in all cases: cell-based
human TLR7 = target: T1, human TLR7 (Homo sapiens, UniProt Q9NYK1); assay: TLR7 inhibition reporter assay (HEK-Blue cells, SEAP reporter, gardiquimod stimulation); conditions: HEK-Blue cells overexpressing human TLR7, SEAP reporter, gardiquimod 7.5 μM; read-out: TLR7 IC50
T1 construct: host or cells: HEK-Blue cells
T1 sequence (Q9NYK1 27-1049): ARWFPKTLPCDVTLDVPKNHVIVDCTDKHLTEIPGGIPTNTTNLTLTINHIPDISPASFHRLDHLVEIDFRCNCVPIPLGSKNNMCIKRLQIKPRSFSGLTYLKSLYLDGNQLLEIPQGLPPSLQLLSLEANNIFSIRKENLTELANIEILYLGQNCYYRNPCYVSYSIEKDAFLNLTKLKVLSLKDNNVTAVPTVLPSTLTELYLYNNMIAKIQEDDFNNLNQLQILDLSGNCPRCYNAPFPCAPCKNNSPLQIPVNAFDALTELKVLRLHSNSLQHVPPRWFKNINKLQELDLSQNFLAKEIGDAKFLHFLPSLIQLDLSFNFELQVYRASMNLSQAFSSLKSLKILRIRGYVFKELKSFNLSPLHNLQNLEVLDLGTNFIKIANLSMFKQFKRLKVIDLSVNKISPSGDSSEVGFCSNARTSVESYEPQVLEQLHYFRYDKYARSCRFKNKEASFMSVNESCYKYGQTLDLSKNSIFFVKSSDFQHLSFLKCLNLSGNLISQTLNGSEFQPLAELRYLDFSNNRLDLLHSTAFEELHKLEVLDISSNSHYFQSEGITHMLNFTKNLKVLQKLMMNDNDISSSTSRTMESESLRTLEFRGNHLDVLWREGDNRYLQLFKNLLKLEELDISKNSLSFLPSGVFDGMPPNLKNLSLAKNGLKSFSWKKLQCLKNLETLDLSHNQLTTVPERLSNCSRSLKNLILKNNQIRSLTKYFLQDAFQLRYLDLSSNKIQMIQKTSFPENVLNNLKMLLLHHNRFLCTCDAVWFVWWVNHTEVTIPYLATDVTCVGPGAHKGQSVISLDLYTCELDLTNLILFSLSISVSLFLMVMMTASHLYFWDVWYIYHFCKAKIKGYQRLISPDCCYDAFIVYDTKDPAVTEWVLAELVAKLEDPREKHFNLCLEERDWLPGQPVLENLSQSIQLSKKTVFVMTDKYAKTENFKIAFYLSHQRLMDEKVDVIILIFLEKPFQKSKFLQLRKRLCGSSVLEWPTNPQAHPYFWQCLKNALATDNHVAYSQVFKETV
Procedure, shortened: (§1)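 HEK-Blue cells overexpressing human TLR7, TLR8 or TLR9 carry a SEAP reporter driven by NF-κB/AP-1 sites. Compounds (0.05 nM–50 μM) were preincubated 30 min at room temperature, then cells were stimulated with gardiquimod 7.5 μM (TLR7), R848 15.9 μM (TLR8) or ODN2006 5 nM (TLR9) for 22 h at 37 °C.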

human TLR8 = target: T2, human TLR8 (Homo sapiens, UniProt Q9NR97); assay: TLR8 inhibition reporter assay (HEK-Blue cells, SEAP reporter, R848 stimulation); conditions: HEK-Blue cells overexpressing human TLR8, SEAP reporter, R848 15.9 μM; read-out: TLR8 IC50
T2 construct: host or cells: HEK-Blue cells
T2 sequence (Q9NR97 27-1041): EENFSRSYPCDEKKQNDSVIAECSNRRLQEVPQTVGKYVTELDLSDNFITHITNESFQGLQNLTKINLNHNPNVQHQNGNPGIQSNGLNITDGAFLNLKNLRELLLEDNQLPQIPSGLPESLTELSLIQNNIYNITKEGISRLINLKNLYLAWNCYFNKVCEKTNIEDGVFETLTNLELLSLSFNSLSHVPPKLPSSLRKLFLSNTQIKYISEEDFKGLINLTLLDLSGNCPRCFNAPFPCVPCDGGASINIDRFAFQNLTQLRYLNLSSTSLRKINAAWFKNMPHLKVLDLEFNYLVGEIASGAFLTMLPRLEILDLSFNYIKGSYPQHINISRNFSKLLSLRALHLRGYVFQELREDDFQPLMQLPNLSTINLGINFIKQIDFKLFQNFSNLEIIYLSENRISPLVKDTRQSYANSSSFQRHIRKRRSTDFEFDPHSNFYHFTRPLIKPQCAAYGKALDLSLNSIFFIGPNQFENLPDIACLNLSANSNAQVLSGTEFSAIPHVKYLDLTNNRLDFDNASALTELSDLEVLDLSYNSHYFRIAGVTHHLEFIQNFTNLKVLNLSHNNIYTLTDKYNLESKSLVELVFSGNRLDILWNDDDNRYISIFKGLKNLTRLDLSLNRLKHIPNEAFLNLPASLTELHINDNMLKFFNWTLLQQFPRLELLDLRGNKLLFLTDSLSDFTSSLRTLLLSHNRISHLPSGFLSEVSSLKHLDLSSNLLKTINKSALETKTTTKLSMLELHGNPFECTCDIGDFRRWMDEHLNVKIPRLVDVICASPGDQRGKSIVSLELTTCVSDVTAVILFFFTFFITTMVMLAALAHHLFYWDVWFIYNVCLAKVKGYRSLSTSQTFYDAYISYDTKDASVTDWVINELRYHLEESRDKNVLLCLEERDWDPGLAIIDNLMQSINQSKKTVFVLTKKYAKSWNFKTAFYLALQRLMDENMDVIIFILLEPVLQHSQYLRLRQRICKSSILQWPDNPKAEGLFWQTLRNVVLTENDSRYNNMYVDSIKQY
Procedure, shortened: as §1

human TLR9 = target: T3, human TLR9 (Homo sapiens, UniProt Q9NR96); assay: TLR9 inhibition reporter assay (HEK-Blue cells, SEAP reporter, ODN2006 stimulation); conditions: HEK-Blue cells overexpressing human TLR9, SEAP reporter, ODN2006 5 nM
T3 construct: host or cells: HEK-Blue cells
T3 sequence (Q9NR96 26-1032): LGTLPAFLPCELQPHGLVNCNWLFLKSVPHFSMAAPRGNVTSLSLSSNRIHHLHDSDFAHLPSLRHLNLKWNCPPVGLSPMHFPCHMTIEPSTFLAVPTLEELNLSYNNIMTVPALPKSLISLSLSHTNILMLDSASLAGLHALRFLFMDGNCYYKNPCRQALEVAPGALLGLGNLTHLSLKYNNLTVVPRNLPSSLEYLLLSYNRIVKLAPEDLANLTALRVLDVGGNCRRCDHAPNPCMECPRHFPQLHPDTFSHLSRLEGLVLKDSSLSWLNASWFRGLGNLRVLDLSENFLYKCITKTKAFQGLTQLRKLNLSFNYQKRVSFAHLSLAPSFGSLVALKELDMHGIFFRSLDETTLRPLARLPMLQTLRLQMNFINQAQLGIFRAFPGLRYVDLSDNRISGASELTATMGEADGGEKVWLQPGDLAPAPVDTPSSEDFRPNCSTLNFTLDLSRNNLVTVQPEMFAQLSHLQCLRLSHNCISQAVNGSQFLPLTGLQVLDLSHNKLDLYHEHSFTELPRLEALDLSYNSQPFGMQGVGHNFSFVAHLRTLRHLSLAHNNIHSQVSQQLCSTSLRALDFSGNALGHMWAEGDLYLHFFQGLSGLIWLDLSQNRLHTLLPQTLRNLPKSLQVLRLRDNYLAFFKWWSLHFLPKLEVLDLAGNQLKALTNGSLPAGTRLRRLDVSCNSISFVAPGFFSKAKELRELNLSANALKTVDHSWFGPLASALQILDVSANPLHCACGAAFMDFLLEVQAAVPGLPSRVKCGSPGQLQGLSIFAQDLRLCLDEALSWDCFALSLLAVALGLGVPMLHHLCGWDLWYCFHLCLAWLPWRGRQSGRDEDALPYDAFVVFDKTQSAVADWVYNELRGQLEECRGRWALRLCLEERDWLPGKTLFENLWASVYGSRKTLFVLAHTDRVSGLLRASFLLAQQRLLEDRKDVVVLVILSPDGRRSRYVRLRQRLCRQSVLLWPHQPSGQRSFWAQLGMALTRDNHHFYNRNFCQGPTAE
Procedure, shortened: as §1

SMILES	IC50 (human TLR7) [nM]	IC50 (human TLR8) [nM]	IC50 (human TLR9) [nM]
COc1cc(-c2[nH]c3sc(C4CCC(N5CCNC(=O)C5)CC4)nc3c2C)cn2ncnc12 (single isomer, unassigned) [Example 275, 4-(4-(5-(8-methoxy-[1,2,4]triazolo[1,5-a]pyridin-6-yl)-6-methyl-4H-pyrrolo[3,2-d]thiazol-2-yl)cyclohexyl)piperazin-2-one]	413	515	> 50000
Cc1c(-c2[nH]c3sc(C4CCC(N5CCC5)CC4)nc3c2C(C)C)cn(C)c(=O)c1C (single isomer, unassigned) [Example 256, 5-(2-(4-(azetidin-1-yl)cyclohexyl)-6-isopropyl-4H-pyrrolo[3,2-d]thiazol-5-yl)-1,3,4-trimethylpyridin-2(1H)-one]	34.3	31.3	16900
Cc1cc(-c2[nH]c3sc(C4CCN(C5CCOCC5)CC4)nc3c2C(C)C)cc(C)n1 [Example 26, 5-(2,6-dimethylpyridin-4-yl)-6-isopropyl-2-(1-(tetrahydro-2H-pyran-4-yl)piperidin-4-yl)-4H-pyrrolo[3,2-d]thiazole]	442	413	7210
Cc1cc(-c2[nH]c3sc(C4CCN(CC5(C)COC5)CC4)nc3c2C(C)C)cc(C)n1 [Example 27, 5-(2,6-dimethylpyridin-4-yl)-6-isopropyl-2-(1-((3-methyloxetan-3-yl)methyl)piperidin-4-yl)-4H-pyrrolo[3,2-d]thiazole]	29.7	2.87	388
CC(C)c1c(-c2cn(C)c3ncccc23)[nH]c2sc(C3CCC(NCC(C)(C)O)CC3)nc12 (single isomer, unassigned) [Example 183, 1-((4-(6-isopropyl-5-(1-methyl-1H-pyrrolo[2,3-b]pyridin-3-yl)-4H-pyrrolo[3,2-d]thiazol-2-yl)cyclohexyl)amino)-2-methylpropan-2-ol]	8.89	9.41	6790

Now those with a lower IC50 (human TLR7), led by results:

IC50 (human TLR7) [nM]	IC50 (human TLR8) [nM]	IC50 (human TLR9) [nM]	SMILES
8.43	2.26	17100	Cc1c(-c2[nH]c3sc(C4CCC(N(C)C(C)C)CC4)nc3c2C(C)C)cn(C)c(=O)c1C (single isomer, unassigned) [Example 261, 5-(6-isopropyl-2-(4-(isopropyl(methyl)amino)cyclohexyl)-4H-pyrrolo[3,2-d]thiazol-5-yl)-1,3,4-trimethylpyridin-2(1H)-one]
6.66	2.33	21500	Cc1c(-c2[nH]c3sc(C4CCC(NCC(=O)N(C)C)CC4)nc3c2C(C)C)cn2ncnc2c1C (single isomer, unassigned) [Example 205, 2-((4-(5-(7,8-dimethyl-[1,2,4]triazolo[1,5-a]pyridin-6-yl)-6-isopropyl-4H-pyrrolo[3,2-d]thiazol-2-yl)cyclohexyl)amino)-N,N-dimethylacetamide]
6.3	7.94	19200	Cc1c(-c2[nH]c3sc(N4CCN(C(=O)CN(C)C)C[C@@H]4C)nc3c2C(C)C)cn2ncnc2c1C [Example 346, (S)-1-(4-(5-(7,8-dimethyl-[1,2,4]triazolo[1,5-a]pyridin-6-yl)-6-isopropyl-4H-pyrrolo[3,2-d]thiazol-2-yl)-3-methylpiperazin-1-yl)-2-(dimethylamino)ethan-1-one]
2.03	21.5	3270	COc1cc(-c2[nH]c3sc(C4CCC(N5CCC5)CC4)nc3c2C(C)C)cn2ncnc12 (single isomer, unassigned) [Example 77, 2-(4-(azetidin-1-yl)cyclohexyl)-6-isopropyl-5-(8-methoxy-[1,2,4]triazolo[1,5-a]pyridin-6-yl)-4H-pyrrolo[3,2-d]thiazole]
1.23	4.75	7220	CCN(C)C1CCC(c2nc3c(C(C)C)c(-c4cc(OC)c5ncnn5c4)[nH]c3s2)CC1 (single isomer, unassigned) [Example 72, N-ethyl-4-(6-isopropyl-5-(8-methoxy-[1,2,4]triazolo[1,5-a]pyridin-6-yl)-4H-pyrrolo[3,2-d]thiazol-2-yl)-N-methylcyclohexan-1-amine]
